Like-named read-outs stand apart in the source and are kept apart here.

The record followed here is patent publication US20070145619A1, “Processes for producing microencapsulated delivery vehicles” (Kimberly-Clark Worldwide, Inc., priority 2005, published 2007).

Series [1] in a line: Heat generation after soaking in de-ionized water. The class given is physicochemical. Conditions: 0.73 grams added to 7.0 grams de-ionized water, no protective layer; FIG. 6. As for the experimental part: Four samples of the calcium chloride particles including a moisture protective layer were then analyzed for their ability to generate heat after exposure to water. A control sample (calcium chloride) was also tested for heat generating capabilities and compared to the four samples of calcium chloride having a moisture protective layer.
To analyze the samples for heat generation, 0.80 grams of each sample of calcium chloride including a moisture protective layer was added to four separate vials each containing 7.0 grams of de-ionized water and 0.73 grams of the control sample was added to a fifth vial containing 7.0 grams of de-ionized water. Using a J type thermocouple (commercially available from Omega Engineering, Inc., Stamford, Conn.) and a data logger, the temperature of the samples was measured over a period of 180 seconds. The four vials containing the samples of microencapsulated heat delivery vehicle including a moisture protective layer were allowed to remain in the de-ionized water for 0.5 hours, 1.0 hour, 1.5 hours, and 2.0 hours, respectively, at which time the samples were activated by crushing the samples by hand using a metal rod. The temperature of the water in the four vials was measured for a period of 180 seconds after crushing the samples.

Series [2] deals with Staphylococcus aureus. Briefly: Biocidal efficacy of magnesium chloride in combination with PHMB, total plate count. Format: cell-based. Conditions: 15-minute contact time. The procedure: A 1.5-milliliter tube was prepared using magnesium chloride in water.
Two control samples were also prepared. One control sample was filled with 0.850 milliliters magnesium chloride. A second control sample was prepared by introducing 0.850 milliliters sterile water.
The tubes were then vortexed until an increase in temperature was observed.
0.05 milliliters of 1×10^7 CFU/milliliter culture of Staphylococcus aureus was added to each tube. After a 15-minute contact time, 0.1 milliliters of each tube was transferred into 0.9 milliliters letheen broth. To the broth, 10 milligrams/milliliter sodium thiosulfate was also added. The tubes were again vortexed. After vortexing, 0.1 milliliters of each tube was plated on Tryptic soy agar plates. The plates were inverted and incubated at 37° C. for 24 hours. An inoculum control plate was also plated to determine the concentration of the inoculum
After 24 hours, the plates were evaluated using a total plate count to determine the biocidal efficacy of each sample.

For series [3] the following is noted: particle size less than 250 micrometers, compared with three other size ranges; 35 wt % in mineral oil added to 7.0 grams de-ionized water; FIG. 4. As for the experimental part:
In this example, samples incorporating various size ranges of anhydrous magnesium chloride suspended in mineral oil at 35 wt % were evaluated for their ability to generate heat upon introduction into water.
The four size ranges of anhydrous magnesium chloride evaluated were: (1) 1000-1500 microns; (2) 600-1000 microns; (3) 250-600 microns; and (4) less than 250 microns. To produce the samples of anhydrous magnesium chloride in mineral oil, the various size ranges of anhydrous magnesium chloride powder (Magnesium Interface Inc. (Vancouver, B.C., Canada) were suspended at 35 wt % in mineral oil (available as Drakeol 7 LT NF from Penreco, Dickinson, Tex.). To produce the samples having anhydrous magnesium chloride with size ranges of 1000-1500 microns, 600-1000 microns, and 250-600 microns, the as received anhydrous magnesium chloride powder was hand screened into the size ranges desired and the powders collected. These powders were suspended at 35 wt % in mineral oil using a cowles mixing blade. […]
All four samples were then added to 7.0 grams de-ionized water and the resulting temperature rise was measured using a J type Thermocouple (available from Omega Engineering, Inc., Stamford, Conn.).

The conditions of series [4]: particle size 149-355 micrometers, compared with four other size ranges; 35 wt % in mineral oil added to 7.0 grams de-ionized water; FIG. 3. The procedure: In this example, samples incorporating various size ranges of anhydrous calcium chloride suspended in mineral oil at 35 wt % were evaluated for their ability to generate heat upon introduction into water.
The five size ranges of anhydrous calcium chloride evaluated were: (1) less than 149 microns; (2) 149-355 microns; (3) 710-1190 microns; (4) 1190-2000 microns; and (5) 2000-4000 microns. The samples of anhydrous calcium chloride (Dow Chemical, Midland, Mich.) were dispersed in mineral oil (available as Drakeol 7 LT NF from Penreco, Dickinson, Tex.). The as received anhydrous calcium chloride were screened dry using a Gilson Sonic Sieve (Gilson Company, Inc. Columbus, Ohio) to create two sizes, a 1190-2000 micron size and a 2000-4000 micron size. These powders were then suspended at 35 wt % in mineral oil to form a slurry using a cowles mixing blade. To achieve the smaller size distributions, the anhydrous calcium chloride powder required further processing. […]
All five samples were then individually added to 7.0 grams de-ionized water and the resulting temperature rise was measured using a Barnant Scanning Thermocouple (available from Therm-X of California, Hayward, Calif.).

Series [5] relates to Methicillin-resistant Staphylococcus aureus. Conditions: for LOG10 Reduction: 0.005% PHMB vs no PHMB; for LOG10 Reduction / Total CFU Recovered MRSA: 10-minute contact time; for Total CFU Recovered MRSA: 0.005% PHMB, 5% bovine serum albumin soil, n = 2. The procedure: This Example utilized 1.5-milliliter tubes containing a 1-milliliter blend of phosphate-buffered saline (pH 7.2) and 5% (w/v) bovine serum albumin soil. The tubes were placed in electric heat blocks set for 22° C., 30° C., 40° C. and 50° C., respectively. The tubes remained in the electric heat blocks for approximately 10 minutes.
After 10 minutes, 0.005% (by weight) active polyhexamehtylene biguanide (PHMB) (commercially available as Cosmocil® CQ from Arch Biocides, Inc., United Kingdom) was added to two tubes at each temperature level. Duplicate tubes without PHMB at each temperature were also made.
The tubes were then vortexed and Methicillin-resistant Staphylococcus aureus (approximately 1×10^5 colony forming units (CFU)) was then added to each tube. All of the tubes were then placed back into the heat blocks at their respective temperatures.
Following a 10-minute contact time, 0.1 milliliters of each sample was transferred to 0.9 milliliters letheen broth to neutralize the PHMB activity. The letheen samples were then plated in duplicate on Tryptic Soy agar plates using a WASP2 spiral plater (commercially available from Don Whitley Scientific, Ltd., Yorkshire, United Kingdom). The plates were inverted and incubated at 37±2° C. for 48 hours.
After 48 hours, the plates were evaluated using a total plate count to determine the biocidal efficacy of each sample.

`[Ca+2].[Cl-].[Cl-]` [Example 11 control sample, calcium chloride]: in series [1], the “heat production in water” value was “produced heat immediately upon being introduced into water but only for a short period of time”.

Regarding `[Cl-].[Cl-].[Mg+2]` [Magnesium Chloride, magnesium chloride], the LOG10 recovered in series [2] (PHMB 0%, magnesium chloride 50%) is on record as 1.9 LOG10. For the same compound, the “rate of heat generation” value in series [3] is reported as “highest rate”.

As to `[Ca+2].[Cl-].[Cl-]` [anhydrous calcium chloride, calcium chloride], in series [4], the “rate of heat generation” value is “highest rate”.

Regarding polyhexamethylene biguanide [PHMB], the LOG10 recovered in series [2] (PHMB 0.00025%, magnesium chloride 0%) is on record as 4.8 LOG10. For the same compound, in series [5] (0.005% (by weight) active PHMB), the “difference in efficacy between 22° C. and 50° C.” value is “greater than 1.4 LOG10”. Moreover, the “LOG10 Reduction” value in series [5] (22° C.) was 2.1 LOG10; in series [5] (30° C.), 2.8 LOG10; in series [5] (40° C.), 3.5 LOG10; in series [5] (50° C.), >3.5 LOG10. In addition, the “Total CFU Recovered MRSA” value is on record as 3.5 CFU in series [5] (22° C.), 2.9 CFU in series [5] (30° C.), 2.1 CFU in series [5] (40° C.) and <2 CFU in series [5] (50° C.).
